IC50 data for 22 compounds are collected here from patent US20220296595A1, “CDK INHIBITORS” (QILU REGOR THERAPEUTICS INC., priority 2019, published 2022).

As a reminder, the IC50 is the concentration needed to halve the response being measured.

Read-outs that look alike come from different tables or passages of the source. Where only a bound is given, the exact number is not on record here.

The target in test [1] is T1, CDK2/CyclinE1 (Homo sapiens, UniProt P24941).
T1 construct: purchased SignalChem C29-18G
The experiment in a line: Assay for inhibition of CDK2/CyclinE1 (Caliper microfluidic kinase assay). The format is biochemical. Particulars: read-out: CDK2 IC50. Summed up:
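Caliper microfluidic mobility-shift assay: 5 nM CDK2/CyclinE1, 100 μM ATP, 5 μM FL-18 peptide (5-FAM-QSPKKG-NH2) in pH 7.5 HEPES buffer with MgCl2, DTT, BSA, Triton X-100. Incubated 3 hours at room temperature, EDTA-stopped; IC50 from 4-parameter sigmoidal fit.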

Test [2] deals with T2, CDK4/CyclinD1 (Homo sapiens, UniProt P11802).
T2 construct: purchased Thermofisher PR8064A
Briefly: Assay for inhibition of CDK4/CyclinD1 (Caliper microfluidic kinase assay). The format is biochemical. The gist of the method:
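Caliper microfluidic mobility-shift assay tracking phosphorylation of 1 μM FL-34 peptide by 1 nM CDK4/CyclinD1 with 200 μM ATP in HEPES pH 7.5 buffer with 10 mM MgCl2. Reaction ran 3 h at room temperature, was stopped with EDTA, and IC50 came from a 4-parameter sigmoidal fit.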

In test [3] the target is T3, CDK6/CyclinD3 (Homo sapiens, UniProt Q00534).
T3 construct: purchased Carna 04-107
The experiment in a line: Assay for inhibition of CDK6/CyclinD3 (Caliper microfluidic kinase assay). The format is biochemical. The gist of the method: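 Caliper mobility-shift readout of FAM-labelled peptide (FL-34, 1 μM) phosphorylation by 2 nM CDK6/CyclinD3 at 300 μM ATP in HEPES pH 7.5 buffer with MgCl2, DTT; 3 h at room temperature, EDTA stop. IC50 from 4-parameter sigmoidal fit.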

The test system of test [4] is T47D breast cancer cells. Briefly: Anti-proliferation assay in T47D cell (Cyquant, day 6). The format is cell-based, human. The settings on record: Homo sapiens, T47D, anti-proliferation, T47D cells; read-out: T47D IC50. Summed up: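 Cells were grown in RPMI 1640 with 10% FBS at 37 °C and dosed the day after plating at ten concentrations, 10 μM to 0.51 nM in 3-fold steps. CyQuant fluorescence (ex 485/em 535 nm) was read on day 6. IC50 was fitted from baseline-subtracted viability curves, with the baseline read after overnight culture.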

The subject of test [5] is phosphorylation of Retinoblastoma Protein (pRb Ser807/811 or Ser780) in T47D cells. The experiment in a line: Inhibition of phosphorylation of retinoblastoma protein (pRb) in T47D cell (ELISA). The settings on record: Homo sapiens, T47D, read-out: Phospho T47D Ser807 IC50, pRb Ser807 phosphorylation, T47D cells. The format is cell-based, human. Summed up: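 T47D cells in RPMI 1640 + 10% FBS, adhered overnight, then treated 24 h with 3-fold compound titrations (top concentration […]). Lysates assayed by sandwich ELISA for pRb Ser807/811 or Ser780 with HRP/TMB detection. IC50 from 4-parameter sigmoidal fit.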
A general note: ELISA stands for enzyme-linked immunosorbent assay.

T3 sequence (Q00534 whole entry): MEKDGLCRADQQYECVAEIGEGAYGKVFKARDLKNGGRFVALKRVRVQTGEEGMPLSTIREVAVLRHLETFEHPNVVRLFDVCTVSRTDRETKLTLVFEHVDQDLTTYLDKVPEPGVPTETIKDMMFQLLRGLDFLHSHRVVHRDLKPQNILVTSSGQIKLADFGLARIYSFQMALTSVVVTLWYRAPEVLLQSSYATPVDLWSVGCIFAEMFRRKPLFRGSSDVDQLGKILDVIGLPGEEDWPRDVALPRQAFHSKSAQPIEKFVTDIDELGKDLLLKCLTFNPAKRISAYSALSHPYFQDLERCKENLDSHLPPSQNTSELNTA
T3 sequence (P30281 whole entry partner): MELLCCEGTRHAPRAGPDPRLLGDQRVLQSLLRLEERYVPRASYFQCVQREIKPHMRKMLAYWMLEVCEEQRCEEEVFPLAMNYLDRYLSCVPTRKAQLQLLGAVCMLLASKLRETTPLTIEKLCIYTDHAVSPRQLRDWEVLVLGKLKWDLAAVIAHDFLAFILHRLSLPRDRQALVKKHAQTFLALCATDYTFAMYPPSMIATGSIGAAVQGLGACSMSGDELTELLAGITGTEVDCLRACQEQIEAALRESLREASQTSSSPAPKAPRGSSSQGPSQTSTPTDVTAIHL
T2 sequence (P11802 whole entry): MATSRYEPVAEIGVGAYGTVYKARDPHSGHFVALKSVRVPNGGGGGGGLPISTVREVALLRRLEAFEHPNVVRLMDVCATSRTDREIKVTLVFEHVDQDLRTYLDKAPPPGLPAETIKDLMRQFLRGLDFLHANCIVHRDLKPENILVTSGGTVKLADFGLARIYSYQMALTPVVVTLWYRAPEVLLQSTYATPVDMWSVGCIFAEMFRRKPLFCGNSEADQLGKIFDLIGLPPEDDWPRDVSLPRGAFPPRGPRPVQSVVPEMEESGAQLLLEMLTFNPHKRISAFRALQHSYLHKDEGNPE
T2 sequence (P24385 whole entry partner): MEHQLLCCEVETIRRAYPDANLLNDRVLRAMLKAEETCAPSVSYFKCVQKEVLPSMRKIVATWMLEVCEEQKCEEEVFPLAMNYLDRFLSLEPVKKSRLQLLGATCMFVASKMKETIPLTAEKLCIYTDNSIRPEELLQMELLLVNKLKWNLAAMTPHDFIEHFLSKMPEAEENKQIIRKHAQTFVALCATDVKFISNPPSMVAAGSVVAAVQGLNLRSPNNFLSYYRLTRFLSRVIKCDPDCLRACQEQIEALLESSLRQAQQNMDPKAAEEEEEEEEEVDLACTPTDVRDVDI

For the compound `CC(C)c1cnn2ccc(-c3ccnc(Nc4ccc(N5CCN(CCO)CC5=O)cn4)n3)cc12` [compound 237], the IC50 was 10 to 100 nM in test [1] (CDK2/CyclinE1, 100 μM ATP); < 10 nM in test [2] (CDK4/CyclinD1, 200 μM ATP); 10 to 100 nM in test [3] (CDK6/CyclinD3, 300 μM ATP); < 100 nM in test [4]; < 100 nM in test [5].

For the compound `CC(C)n1cnc2c1CN(c1ccnc(Nc3ccc(N4CCCNC4=O)cn3)n1)CC2` [compound 242], the IC50 in test [1] (CDK2/CyclinE1, 100 μM ATP) is 100 to 1000 nM; in test [2] (CDK4/CyclinD1, 200 μM ATP), < 10 nM; in test [3] (CDK6/CyclinD3, 300 μM ATP), 10 to 100 nM; in test [4], 500 to 1000 nM; in test [5], < 100 nM.

Regarding `CC(C)n1cnc2c1CN(c1ccnc(Nc3ccc(N4CCC(C)(N)CC4=O)cn3)n1)CC2` (centres unmarked) [compound 244], the IC50 in test [1] (CDK2/CyclinE1, 100 μM ATP) was 10 to 100 nM; in test [2] (CDK4/CyclinD1, 200 μM ATP), < 10 nM; in test [3] (CDK6/CyclinD3, 300 μM ATP), 100 to 1000 nM; in test [4], 500 to 1000 nM; in test [5], 500 to 1000 nM.

Turning to `CC(C)n1cnc2c1CN(c1ccnc(Nc3ccc(N4CCC(N(C)C)CC4=O)cn3)n1)CC2` (centres unmarked) [compound 245], the IC50 in test [1] (CDK2/CyclinE1, 100 μM ATP) was 10 to 100 nM; in test [2] (CDK4/CyclinD1, 200 μM ATP), < 10 nM; in test [3] (CDK6/CyclinD3, 300 μM ATP) it was 100 to 1000 nM; in test [4], 500 to 1000 nM; in test [5] it was 100 to 500 nM.

Take `CC1(N)CCN(c2ccc(Nc3nccc(-c4cc(F)c5c(c4)C(C)(C)CO5)n3)nc2)C(=O)C1` (centres unmarked) [compound 258]: the IC50 was 10 to 100 nM in test [1] (CDK2/CyclinE1, 100 μM ATP); < 10 nM in test [2] (CDK4/CyclinD1, 200 μM ATP); 10 to 100 nM in test [3] (CDK6/CyclinD3, 300 μM ATP); < 100 nM in test [4]; < 100 nM in test [5].

Turning to `CN(C)C1CCN(c2ccc(Nc3nccc(-c4cc(F)c5c(c4)C(C)(C)CO5)n3)nc2)C(=O)C1` (centres unmarked) [compound 259], the IC50 in test [1] (CDK2/CyclinE1, 100 μM ATP) is 10 to 100 nM; in test [2] (CDK4/CyclinD1, 200 μM ATP), < 10 nM; in test [3] (CDK6/CyclinD3, 300 μM ATP), 10 to 100 nM; in test [4], < 100 nM; in test [5], < 100 nM.

As for `CC(C)n1cnc2c(F)nc(-c3ccnc(Nc4ccc(N5CCC(N(C)C)CC5=O)cn4)n3)cc21` (centres unmarked) [compound 270], the IC50 is 10 to 100 nM in test [1] (CDK2/CyclinE1, 100 μM ATP); < 10 nM in test [2] (CDK4/CyclinD1, 200 μM ATP); < 10 nM in test [3] (CDK6/CyclinD3, 300 μM ATP); < 100 nM in test [4]; < 100 nM in test [5].

For `CC(C)n1cnc2c(F)nc(-c3ccnc(Nc4ccc(N5CC6CC5CN6)cn4)n3)cc21` (centres unmarked) [compound 272], the IC50 is 100 to 1000 nM in test [1] (CDK2/CyclinE1, 100 μM ATP); < 10 nM in test [2] (CDK4/CyclinD1, 200 μM ATP); 10 to 100 nM in test [3] (CDK6/CyclinD3, 300 μM ATP); < 100 nM in test [4]; < 100 nM in test [5].

Consider `CC(C)n1cnc2c(F)nc(-c3ccnc(Nc4ccc(N5CCNCC5=O)cn4)n3)cc21` [compound 273], for which the IC50 was 10 to 100 nM in test [1] (CDK2/CyclinE1, 100 μM ATP); < 10 nM in test [2] (CDK4/CyclinD1, 200 μM ATP); 10 to 100 nM in test [3] (CDK6/CyclinD3, 300 μM ATP); < 100 nM in test [4]; < 100 nM in test [5].

With `Cc1nc2c(F)nc(-c3ccnc(Nc4ccc(N5CCNCC5=O)cn4)n3)cc2n1C(C)C` [compound 276], the IC50 in test [1] (CDK2/CyclinE1, 100 μM ATP) is 10 to 100 nM; in test [2] (CDK4/CyclinD1, 200 μM ATP), < 10 nM; in test [3] (CDK6/CyclinD3, 300 μM ATP), < 10 nM; in test [4], < 100 nM; in test [5], < 100 nM.

Turning to `CC(C)n1cnc2c(F)nc(-c3nc(Nc4ccc(N5CCC(N(C)C)CC5=O)cn4)ncc3Cl)cc21` (centres unmarked) [compound 278], the IC50 is 100 to 1000 nM in test [1] (CDK2/CyclinE1, 100 μM ATP); < 10 nM in test [2] (CDK4/CyclinD1, 200 μM ATP); 10 to 100 nM in test [3] (CDK6/CyclinD3, 300 μM ATP); < 100 nM in test [4]; < 100 nM in test [5].

Consider `Cc1cnc(Nc2ccc(N3CCC(N(C)C)CC3=O)cn2)nc1-c1cc2c(ncn2C(C)C)c(F)n1` (centres unmarked) [compound 279], for which the IC50 in test [1] (CDK2/CyclinE1, 100 μM ATP) was 100 to 1000 nM; in test [2] (CDK4/CyclinD1, 200 μM ATP) it was < 10 nM; in test [3] (CDK6/CyclinD3, 300 μM ATP) it was 10 to 100 nM; in test [4] it was < 100 nM; in test [5], < 100 nM.

Take `CC(C)n1cnc2c(F)nc(-c3ccnc(Nc4ccc(N5CCC(C)(N)CC5=O)cc4)n3)cc21` (centres unmarked) [compound 280]: the IC50 was < 10 nM in test [1] (CDK2/CyclinE1, 100 μM ATP); < 10 nM in test [2] (CDK4/CyclinD1, 200 μM ATP); < 10 nM in test [3] (CDK6/CyclinD3, 300 μM ATP); < 100 nM in test [4]; < 100 nM in test [5].

On to `CC(C)n1cnc2c(F)nc(-c3ccnc(Nc4ccc(N5CCC(N(C)C)CC5=O)cc4)n3)cc21` (centres unmarked) [compound 281], for which the IC50 in test [1] (CDK2/CyclinE1, 100 μM ATP) was < 10 nM; in test [2] (CDK4/CyclinD1, 200 μM ATP), < 10 nM; in test [3] (CDK6/CyclinD3, 300 μM ATP) it was < 10 nM; in test [4], < 100 nM; in test [5], < 100 nM.

For the compound `CC(C)n1cnc2c(F)nc(-c3ccnc(Nc4ccc(N5CCCNC5=O)cc4)n3)cc21` [compound 282], the IC50 in test [1] (CDK2/CyclinE1, 100 μM ATP) is < 10 nM; in test [2] (CDK4/CyclinD1, 200 μM ATP), < 10 nM; in test [3] (CDK6/CyclinD3, 300 μM ATP), < 10 nM; in test [4] it was < 100 nM; in test [5] it was < 100 nM.

Turning to `CC(C)n1cnc2c(F)nc(-c3ccnc(Nc4ccc(N5CCCC(N(C)C)C5=O)cn4)n3)cc21` (centres unmarked) [compound 283], the IC50 in test [1] (CDK2/CyclinE1, 100 μM ATP) is > 1000 nM; in test [2] (CDK4/CyclinD1, 200 μM ATP) it was < 10 nM; in test [3] (CDK6/CyclinD3, 300 μM ATP), < 10 nM; in test [4] it was < 100 nM; in test [5], < 100 nM.

On to `CCN1CCN(Cc2ccc(Nc3nccc(-c4cc5c(ncn5C(C)C)c(F)n4)n3)nc2)CC1` [compound 285], for which the IC50 was > 1000 nM in test [1] (CDK2/CyclinE1, 100 μM ATP); < 10 nM in test [2] (CDK4/CyclinD1, 200 μM ATP); 10 to 100 nM in test [3] (CDK6/CyclinD3, 300 μM ATP); < 100 nM in test [4]; < 100 nM in test [5].

As to `CC(C)n1cnc2c(F)nc(-c3ccnc(Nc4ccc(N5CCNCC5)cn4)n3)cc21` [compound 286], the IC50 in test [1] (CDK2/CyclinE1, 100 μM ATP) is 100 to 1000 nM; in test [2] (CDK4/CyclinD1, 200 μM ATP), < 10 nM; in test [3] (CDK6/CyclinD3, 300 μM ATP), 10 to 100 nM; in test [4] it was < 100 nM; in test [5], < 100 nM.

For `CC(C)n1cnc2c(F)nc(-c3ccnc(Nc4ccc(N5CCCC(N)C5=O)cc4)n3)cc21` (centres unmarked) [compound 293], the IC50 in test [1] (CDK2/CyclinE1, 100 μM ATP) is 10 to 100 nM; in test [2] (CDK4/CyclinD1, 200 μM ATP), < 10 nM; in test [3] (CDK6/CyclinD3, 300 μM ATP), < 10 nM; in test [4], < 100 nM; in test [5] it was < 100 nM.

For `CCN1CC2CC1CN2c1ccc(Nc2nccc(-c3cc4c(ncn4C(C)C)c(OC)n3)n2)nc1` (centres unmarked) [compound 312], the IC50 was > 1000 nM in test [1] (CDK2/CyclinE1); < 10 nM in test [2] (CDK4/CyclinD1); 10 to 100 nM in test [3] (CDK6/CyclinD3); 100 to 500 nM in test [4]; < 100 nM in test [5].

As for `COc1nc(-c2ccnc(Nc3ccc(N4CCC(N5CCC5)CC4=O)cn3)n2)cc2c1ncn2C(C)C` (centres unmarked) [compound 314], the IC50 in test [1] (CDK2/CyclinE1) is 10 to 100 nM; in test [2] (CDK4/CyclinD1), < 10 nM; in test [3] (CDK6/CyclinD3), 10 to 100 nM; in test [4], < 100 nM; in test [5], < 100 nM.

As to `COc1nc(-c2ccnc(Nc3ccc(N4CCC(N5CC(F)(F)C5)CC4=O)cn3)n2)cc2c1ncn2C(C)C` (centres unmarked) [compound 315], the IC50 is 100 to 1000 nM in test [1] (CDK2/CyclinE1); < 10 nM in test [2] (CDK4/CyclinD1); 10 to 100 nM in test [3] (CDK6/CyclinD3); 100 to 500 nM in test [4]; < 100 nM in test [5].
